The results in this text go back to article PMC4286326 (Journal of the American Chemical Society, 2014).

A word on the inhibition: it is the share of the control response that was lost under treatment.

SMILES strings stand for the structures. Like-named read-outs stand apart in the source and are kept apart here. Bounds are passed on as bounds.

In one series the target is WT M2 (A/M2) (Influenza A virus, UniProt P0DOF5). The experiment in a line: biochemical.
Series [1] has as its system WT M2-expressing A/Udorn/72. The experiment in a line: microbe, parasite or virus in culture. In kind it is cell-based. The settings on record: Influenza A virus, MDCK, read-out: A/Udorn/72 (S31) EC50.
A short description of a further series: in vitro. The settings on record: dog.

Chain of WT M2 (A/M2) (P0DOF5 whole entry, looked up): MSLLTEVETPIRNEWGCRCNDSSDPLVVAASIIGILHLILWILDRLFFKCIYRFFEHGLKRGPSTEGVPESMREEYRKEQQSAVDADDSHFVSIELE

Take `Brc1ccc(CNC23CC4CC(CC(C4)C2)C3)s1` [Compound 11, N-[(5-bromothiophen-2-yl)methyl]adamantan-1-amine]: the inhibition at 100 µM at WT M2 (A/M2) (read-out: % WT inhibition) and at WT M2 (A/M2) (read-out: % WT(S31) inhibition) was 77% each time. The EC50 in series [1] was 4.6 µM. This molecule had a CC50 in “in vitro” of 123 µM.

For the molecule `NC12CC3CC(CC(C3)C1)C2` [Compound 1, amantadine, reference compound], in series [1], the EC50 came out at 0.3 µM. The same molecule came in with a CC50 in “in vitro” of more than 300 µM.
